Experimental data from patent US5308844A, “Substituted 3-piperazinylalkyl-2,3-dihydro-4H-1,3-benzoxazin-4-ones and their use in therapy” (Pierre Fabre Medicament, priority 1991, dated 1994).
Structures can show the parent of a compound that is named as a salt.

Experiments:
[1] = solubility; type: physicochemical; conditions: for solubility: water, read-out: soluble in water up to; for solubility / soluble in water up to: in water
[2] = biological target: T1, 5HT1 A receptors (Rattus norvegicus, UniProt P19327); test: 5HT1 A binding (3H-8-OH-DPAT, hippocampus membranes); set-up: species or system Male Charles River rats; conditions: 3H-8-OH-DPAT ligand 1 nM, 30 min at 25° C.
T1 construct: The hippocampus is ground in a Polytrone; from tissue; host or cells: rat hippocampus membranes (male Charles River rats)
T1 sequence (P19327 1-422): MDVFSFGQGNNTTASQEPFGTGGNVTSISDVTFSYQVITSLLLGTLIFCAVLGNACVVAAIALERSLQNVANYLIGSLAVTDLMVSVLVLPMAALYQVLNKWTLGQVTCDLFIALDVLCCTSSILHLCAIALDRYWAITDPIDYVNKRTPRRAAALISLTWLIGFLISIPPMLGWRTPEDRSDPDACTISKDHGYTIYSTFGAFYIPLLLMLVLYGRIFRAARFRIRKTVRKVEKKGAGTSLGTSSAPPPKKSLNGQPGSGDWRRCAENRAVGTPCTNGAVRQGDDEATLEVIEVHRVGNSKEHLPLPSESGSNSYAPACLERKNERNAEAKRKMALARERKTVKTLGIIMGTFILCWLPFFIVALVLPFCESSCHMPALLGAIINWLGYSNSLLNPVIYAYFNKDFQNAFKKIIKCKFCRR
Protocol: The 5HT1 A binding studies were carried out according to the technique of Peroutka (cf. Peroutka S. J., J. Neurochem. 47, p. 529-40, 1986). Male Charles River rats are stunned and decapitated, and the brain is removed and dissected. The different cerebral areas obtained are used or preserved at […]. The hippocampus is ground in a Polytrone® (20 seconds at 7) in 20 volumes of 50 mM tris HCl buffer pH 7.7 at 25° C.) and centrifuged at 45000 g for 10 min. The pellet is separated, taken up in the same volume of tris buffer and incubated for 10 min at 37° C. and then recentrifuged for 10 min at 45000 g. The pellet is finally taken up in 100 volumes of tris HCl buffer containing 10 μM of pargyline, 4 mM of CaCl2 and 0.1% of ascorbic acid. The mixture obtained is homogenized in a Dounce.
The binding is carried out starting with 0.8 ml of the above membrane suspension to which 0.1 ml of ^3 H-8-OH-DPAT ligand (at a concentration of 1 nM) and either 0.1 ml of tris buffer (control) or the compound of the above invention is added. After incubation for 30 min at 25° C., the mixture is filtered on GF/B (Whatman) and rinsed with 5 ml of cold tris HCl buffer. The residue and the filter are then introduced into a vial containing 3 ml of Instagel liquid scintillant (Packard) and the radioactivity is measured in a Packard counter (Tri-Carbs).
The IC50 are determined graphically for a concentration of ligand of 1 nM.
Table I gives the IC50 for the 5HT1 A receptors for certain derivatives of the invention by way of nonlimiting example.

Structure (SMILES)	soluble in DMSO up to [1]	solubility [1]	further results
Cc1ccccc1N1CCN(CCN2COc3ccccc3C2=O)CC1 [Example 8, Monohydrochloride of 2,3-dihydro-3-[2-(4-(2-methylphenyl)piperazinyl)ethyl]-4H-1,3-benzoxazin-4-one]	–	≤ 3500 µg/mL	–
O=C1c2ccccc2OCN1CCCN1CCN(c2ccccc2)CC1 [Example 2, Monohydrochloride of 2,3-dihydro-3-[3-(4-phenylpiperazinyl)propyl]-4H-1,3-benzoxazin-4-one]	–	≤ 10000 µg/mL	–
COc1ccccc1N1CCN(CCN2COc3ccccc3C2=O)CC1 [Example 5, Dihydrochloride of 2,3-dihydro-3-[2-(4-(2-methoxyphenyl)piperazinyl)ethyl]-4H-1,3-benzoxazin-4-one]	–	–	IC50 [2]: 5 nM; soluble in water up to [1]: up to 6%
O=C1c2ccccc2OCN1CCN1CCN(c2ccccc2)CC1 [Example 3, Dihydrochloride of 2,3-dihydro-3-[2-(4-phenylpiperazinyl)ethyl]-4H-1,3-benzoxazin-4-one]	–	≤ 10000 µg/mL	–
CC1Oc2ccccc2C(=O)N1CCN1CCN(c2cccc(C(F)(F)F)c2)CC1 (racemic) [Example 19, Hydrate of the (dl) hydrochloride of 2.3-dihydro-2-methyl-3-[2-(4-(3-trifluoromethylphenyl)piperazinyl)ethyl]-4H-1,3-benzoxazin-4-one]	up to 2%	–	–
O=C1c2ccccc2OCN1CCN1CCN(c2cccc(Cl)c2)CC1 [Example 9, Hydrochloride of 2.3-dihydro-3-[2-(4-(3-chlorophenyl)piperazinyl)ethyl]-4H-1,3-benzoxazin-4-one]	up to 10%	–	–
COc1ccccc1N1CCN(CCN2COc3ccccc3C2=O)CC1 [Example 5 monohydrochloride]	–	–	soluble in water up to [1]: up to 0.9%
O=C1c2ccccc2OCN1CCN1CCN(c2cccc(C(F)(F)F)c2)CC1 [Example 10]	up to 7%	–	–
O=C1c2ccccc2OCN1CCN1CCN(c2ccccn2)CC1 [Example 11, Hydrochloride of 2,3-dihydro-3-[2-(4-(2-pyridinyl)piperazinyl)ethyl]-4H-1,3-benzoxazin-4-one]	–	≤ 3000 µg/mL	–
O=C1c2ccccc2OCN1CCN1CCN(c2ncccn2)CC1 [Example 12, Hydrochloride of 2,3-dihydro-3-[2-(4-(2-pyrimidinyl)piperazinyl)ethyl]-4H-1,3-benzoxazin-4-one]	–	≤ 12000 µg/mL	–

Now from value to compound, other results behind:

soluble in DMSO up to [1]	solubility [1]	Structure (SMILES)	further results
up to 2%	–	COc1ccc(N2CCN(CCCCN3COc4cc(OC)c(OC)cc4C3=O)CC2)cc1OC [Example 18, Hydrochloride of 2.3-dihydro-6,7-dimethoxy-3-[4-(4-(3,4-dimethoxyphenyl)piperazinyl)butyl]-4H-1,3-benzoxazin-4-one]	–
–	≤ 5000 µg/mL	O=C1c2ccccc2OCN1CCCCN1CCN(c2ccccc2)CC1 [Example 4, Hydrochloride of 2.3-dihydro-3-[4-(4-phenylpiperazinyl)butyl]-4H-1,3-benzoxazin-4-one]	–
up to 3%	–	COc1ccccc1N1CCN(CCN2COc3ccc(C)cc3C2=O)CC1 [Example 13, Hydrochloride of 2.3-dihydro-6-methyl-3-[2-(4-(2-methoxyphenyl)piperazinyl)ethyl]-4H-1,3-benzoxazin-4-one]	–
up to 6%	–	O=C1c2ccccc2OCN1CCCCN1CCN(c2cccc(C(F)(F)F)c2)CC1 [Example 1, Monohydrochloric 3-dihydro-3-[4-(4-(3-trifluoromethylphenyl)piperazinyl)butyl]-4H-1,3-benzoxazin-4-one]	IC50 [2]: 7 nM
up to 7%	–	COc1ccc2c(c1)C(=O)N(CCN1CCN(c3cccc(C(F)(F)F)c3)CC1)CO2 [Example 16, Hydrochloride of 2.6-dihydro-6-methoxy-3-[2-(4-(3-trifluoromethylphenyl)piperazinyl)ethyl]-4H-1,3-benzoxazin-4-one]	–
–	≤ 30000 µg/mL	COc1ccccc1N1CCN(CCCCN2COc3ccccc3C2=O)CC1 [Example 7, Monohydrate of the dihydrochloride of 2,3-dihydro-3-[4-(4-(2-methoxyphenyl)piperazinyl)butyl]-4H-1,3-benzoxazin-4-one]	–
up to 1.3%	–	COc1ccc2c(c1)C(=O)N(CCN1CCN(c3ccccc3OC)CC1)CO2 [Example 15, Hydrochloride of 6-methoxy-2,3-dihydro-3-[2-(4-(2-methoxyphenyl)piperazinyl)ethyl]-4H-1,3-benzoxazin-4-one]	IC50 [2]: 2.2 nM
–	≤ 2000 µg/mL	COc1cc2c(cc1OC)C(=O)N(CCCCN1CCN(c3ccccc3OC)CC1)CO2 [Example 17, Hydrochloride of 2.3-dihydro-6,7-dimethoxy-3-[4-(4-(2-methoxyphenyl)piperazinyl)butyl]-4H-1,3-benzoxazin-4-one]	–
up to 1%	–	COc1ccccc1N1CCN(CCN2COc3ccc(Cl)cc3C2=O)CC1 [Example 14, Hydrochloride of 6-chloro-2.3-dihydro-3-[2-(4-(2-methoxyphenyl)piperazinyl)ethyl]-4H-1,3-benzoxazin-4-one]	IC50 [2]: 5 nM
–	≤ 5000 µg/mL	COc1ccccc1N1CCN(CCCN2COc3ccccc3C2=O)CC1 [Example 6, Hydrochloride of 2,3-dihydro-3-[3-(4-(2-methoxyphenyl)piperazinyl)propyl]-4H-1,3-benzoxazin-4-one]	–
